The target of assay [1] is Apoptosis regulator Bcl-2 (Homo sapiens, UniProt P10415). Kind of assay: Inhibition of Bid-BH3 peptide binding to Bcl-2 (unknown origin) after 3 hrs by fluorescence polarization method. (In fluorescence polarisation assays a small probe gives low polarisation when free and higher when bound to something large.)
The target in another assay is Bcl-2-like protein 1 (Homo sapiens, UniProt Q07817). Kind of assay: Inhibition of Bid-BH3 peptide binding to Bcl-xL (unknown origin) after 3 hrs by fluorescence polarization method.
Assay [2] has as its target Induced myeloid leukemia cell differentiation protein Mcl-1 (Homo sapiens, UniProt Q07820). Kind of assay: Inhibition of Bid-BH3 peptide binding to Mcl-1 (unknown origin) after 3 hrs by fluorescence polarization method.
Assay [3] deals with Jurkat. Kind of assay: Antiproliferative activity against human Jurkat cells after 72 hrs by MTT assay. The assay is classed as functional, cell-based.
The next assay deals with RS4-11. Kind of assay: Antiproliferative activity against human RS4:11 cells after 72 hrs by MTT assay. In kind it is functional, cell-based. Conditions: RS4-11, 72 h. (Tetrazolium assays rely on reduction of a dye to a coloured formazan, in cell work by metabolically active cells.)
Another assay has as its system THP-1. Kind of assay: Antiproliferative activity against human THP1 cells after 72 hrs by MTT assay. The assay is classed as functional, cell-based. Conditions: THP-1, 72 h; call rule not given here.
A further assay deals with MOLT-4. Kind of assay: Antiproliferative activity against human MOLT4 cells after 72 hrs by MTT assay. In kind it is functional, cell-based. Conditions: MOLT-4, 72 h.
A further assay deals with HUVEC. Kind of assay: Cytotoxicity against HUVEC cells after 72 hrs by MTT assay. In kind it is cell-based. Conditions: Homo sapiens.
Assay [4] relates to Jurkat. Kind of assay: Induction of apoptosis in human Jurkat cells assessed as viable cells at 10 uM after 48 hrs by annexin V-FITC/PI staining based flow cytometry (reference value: 97.4%). In kind it is functional. Conditions: read-out: Activity. A general note: A flow cytometer gives signals particle by particle.
Assay [5] concerns Jurkat. Kind of assay: Induction of apoptosis in human Jurkat cells assessed as early apoptotic cells at 10 uM after 48 hrs by annexin V-FITC/PI staining based flow cytometry (reference value: 2.26%). The assay is classed as functional.
Assay [6] relates to Jurkat. Kind of assay: Induction of apoptosis in human Jurkat cells assessed as late apoptotic cells at 10 uM after 48 hrs by annexin V-FITC/PI staining based flow cytometry (reference value: 0.31%). The assay is classed as functional.
Assay [7] relates to Jurkat. Kind of assay: Induction of apoptosis in human Jurkat cells assessed as necrotic cells at 10 uM after 48 hrs by annexin V-FITC/PI staining based flow cytometry (reference value: 0.008%). The assay is classed as functional.
Assay [8] concerns Jurkat. Kind of assay: Induction of apoptosis in human Jurkat cells assessed as viable cells at 20 uM after 48 hrs by annexin V-FITC/PI staining based flow cytometry (reference value: 97.4%). Conditions: read-out: Activity. In kind it is functional.
The subject of assay [9] is Jurkat. Kind of assay: Induction of apoptosis in human Jurkat cells assessed as early apoptotic cells at 20 uM after 48 hrs by annexin V-FITC/PI staining based flow cytometry (reference value: 2.26%). In kind it is functional.
In assay [10] the test system is Jurkat. Kind of assay: Induction of apoptosis in human Jurkat cells assessed as late apoptotic cells at 20 uM after 48 hrs by annexin V-FITC/PI staining based flow cytometry (reference value: 0.31%). In kind it is functional.
Assay [11] relates to Jurkat. Kind of assay: Induction of apoptosis in human Jurkat cells assessed as necrotic cells at 20 uM after 48 hrs by annexin V-FITC/PI staining based flow cytometry (reference value: 0.008%). In kind it is functional.
In assay [12] the test system is Jurkat. Kind of assay: Induction of apoptosis in human Jurkat cells after 48 hrs by annexin V-FITC/PI staining based flow cytometry. In kind it is functional, cell-based.
The subject of assay [13] is Jurkat. Kind of assay: Induction of apoptosis in human Jurkat cells assessed as increase in activation of caspase-3 after 48 hrs by fluorometric method. In kind it is functional, cell-based.

Bcl-2-like protein 1, sequence (Q07817 whole entry): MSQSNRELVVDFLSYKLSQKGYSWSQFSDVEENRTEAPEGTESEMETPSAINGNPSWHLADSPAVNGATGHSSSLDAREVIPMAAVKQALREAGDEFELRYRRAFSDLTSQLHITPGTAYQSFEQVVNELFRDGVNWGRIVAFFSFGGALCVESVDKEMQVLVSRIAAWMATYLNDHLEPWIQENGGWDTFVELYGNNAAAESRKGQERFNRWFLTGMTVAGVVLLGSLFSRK
Apoptosis regulator Bcl-2, sequence (P10415 whole entry): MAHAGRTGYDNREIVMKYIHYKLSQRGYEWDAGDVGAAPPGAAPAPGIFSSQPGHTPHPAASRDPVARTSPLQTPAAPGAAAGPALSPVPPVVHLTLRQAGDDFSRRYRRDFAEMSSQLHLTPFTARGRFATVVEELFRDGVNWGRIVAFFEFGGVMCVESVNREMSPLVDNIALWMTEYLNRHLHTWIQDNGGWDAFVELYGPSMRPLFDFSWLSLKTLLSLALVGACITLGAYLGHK
Induced myeloid leukemia cell differentiation protein Mcl-1, sequence (Q07820 whole entry): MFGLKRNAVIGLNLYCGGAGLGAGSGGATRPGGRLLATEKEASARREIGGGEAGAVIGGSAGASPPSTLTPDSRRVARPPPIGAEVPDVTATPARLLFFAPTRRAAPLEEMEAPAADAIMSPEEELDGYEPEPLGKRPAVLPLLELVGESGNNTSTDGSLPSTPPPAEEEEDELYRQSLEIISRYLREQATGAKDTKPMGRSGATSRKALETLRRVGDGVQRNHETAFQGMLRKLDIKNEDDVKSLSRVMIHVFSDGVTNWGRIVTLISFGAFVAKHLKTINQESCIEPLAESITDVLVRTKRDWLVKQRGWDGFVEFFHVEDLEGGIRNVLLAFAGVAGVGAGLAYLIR

One may read the Ki as the dissociation constant of the complex between target and ligand, obtained from inhibition or displacement. Broadly, the IC50 is the midpoint of a concentration-inhibition curve. A high value points to lower potency. Turning to `CC(C)(C)OC(=O)N[C@@H](Cc1ccc(OCc2ccc(-c3ccccc3)cc2)cc1)C(=O)NS(=O)(=O)c1ccc(Cl)c([N+](=O)[O-])c1`, the Ki in [1] (read-out: Ki) is 620 nM; on Bcl-2-like protein 1, “Not Active”; in assay [2], 450 nM. The IC50 with Jurkat [3] is 23500 nM; in the assay on RS4-11 it was 14000 nM; in the assay on THP-1, 27200 nM; in the assay with MOLT-4 it was 44400 nM; in the assay on HUVEC, greater than 50000 nM.

Regarding `CC(C)(C)OC(=O)N[C@@H](Cc1ccc(OCc2ccc(-c3ccccc3)cc2)cc1)C(=O)NS(=O)(=O)c1ccc(NCCCc2ccccc2)c([N+](=O)[O-])c1`, the inhibition constant (Ki) entry in assay [1] is given as “Not Active”.

Take `O=C(N[C@@H](Cc1ccc(OCc2ccc(-c3ccccc3)cc2)cc1)C(=O)NS(=O)(=O)c1ccc(Cl)c([N+](=O)[O-])c1)c1cccnc1`: the Ki in assay [1] (read-out: Ki) was determined as 580 nM.

Take `Cc1ccc(CC(=O)N[C@@H](Cc2ccc(OCc3ccccc3)cc2)C(=O)NS(=O)(=O)c2ccc(NCCCc3ccccc3)c([N+](=O)[O-])c2)cc1`: the Ki in assay [1] (read-out: Ki) was 450 nM; at Bcl-2-like protein 1, “Not Active”; in [2], 500 nM. Also, the IC50 in the assay on Jurkat [3] was 23800 nM; in the assay with RS4-11, 16800 nM; with THP-1 it was 23900 nM; in the assay with MOLT-4 it was greater than 50000 nM; in the assay with HUVEC it was greater than 50000 nM.

Regarding `CC(C)(C)OC(=O)N[C@@H](Cc1ccc(OCc2ccc(-c3ccccc3)cc2)cc1)C(=O)NS(=O)(=O)c1ccccc1`, the Ki in assay [1] (read-out: Ki) was found to be 5200 nM.

For `CC(C)(C)OC(=O)N[C@@H](Cc1ccc(OCc2ccc(Oc3ccccc3)cc2)cc1)C(=O)NS(=O)(=O)c1ccc(Cl)c([N+](=O)[O-])c1`, the inhibition constant Ki in [1] (read-out: Ki) was determined as 700 nM.

For `CC(C)(C)OC(=O)N[C@@H](Cc1ccc(OCc2ccc(C#N)cc2)cc1)C(=O)NS(=O)(=O)c1ccc(NCCCc2ccccc2)c([N+](=O)[O-])c1`, the Ki in assay [1] (read-out: Ki) stood at 800 nM.

In the case of `CC(C)(C)OC(=O)N[C@@H](Cc1ccc(OCc2ccc(Oc3ccccc3)cc2)cc1)C(=O)NS(=O)(=O)c1ccc(NC2CCCCC2)c([N+](=O)[O-])c1`, the Ki result in assay [1] was “Not Active”.

For the compound `N#Cc1ccc(COc2ccc(C[C@H](NC(=O)Cc3ccc(-c4ccccc4)cc3)C(=O)NS(=O)(=O)c3ccc(NC4CCCC4)c([N+](=O)[O-])c3)cc2)cc1`, the Ki in assay [1] (read-out: Ki) was 610 nM.

For the compound `Cl.N[C@@H](Cc1ccc(OCc2ccc(-c3ccccc3)cc2)cc1)C(=O)NS(=O)(=O)c1ccc(NCCCc2ccccc2)c([N+](=O)[O-])c1`, the Ki entry in [1] was “Not Active”.

Take `Cl.N[C@@H](Cc1ccc(OCc2ccc(-c3ccccc3)cc2)cc1)C(=O)NS(=O)(=O)c1ccc(Cl)c([N+](=O)[O-])c1`: the Ki entry in assay [1] is listed as “Not Active”.

As to `Cc1ccc(-c2ccc(COc3ccc(C[C@H](NC(=O)OC(C)(C)C)C(=O)NS(=O)(=O)c4ccc(NCCOc5ccccc5)c([N+](=O)[O-])c4)cc3)cc2)cc1`, in assay [1] (read-out: Ki), the Ki turned out to be 850 nM.

For the compound `CC(C)(C)OC(=O)N[C@@H](Cc1ccc(OCc2ccccc2)cc1)C(=O)NS(=O)(=O)c1ccc(Cl)c([N+](=O)[O-])c1`, the Ki result in [1] is “Not Active”.

Regarding `Cl.N[C@@H](Cc1ccc(OCc2ccc(-c3ccccc3)cc2)cc1)C(=O)NS(=O)(=O)c1ccc(NC2CCCCC2)c([N+](=O)[O-])c1`, the Ki entry in assay [1] is given as “Not Active”.

Take `Cc1ccc(-c2ccc(COc3ccc(C[C@H](NC(=O)OC(C)(C)C)C(=O)NS(=O)(=O)c4ccc(Cl)c([N+](=O)[O-])c4)cc3)cc2)cc1`: the Ki in assay [1] (read-out: Ki) was found to be 390 nM.

Consider `O=C(N[C@@H](Cc1ccc(OCc2ccc(-c3ccccc3)cc2)cc1)C(=O)NS(=O)(=O)c1ccc(Cl)c([N+](=O)[O-])c1)c1ccc2ccccc2c1`, for which, in assay [1] (read-out: Ki), the Ki amounted to 570 nM.

In the case of `Cl.N[C@@H](Cc1ccc(OCc2ccccc2)cc1)C(=O)NS(=O)(=O)c1ccc(NCCCc2ccccc2)c([N+](=O)[O-])c1`, the Ki entry in assay [1] is “Not Active”.

Take `Cc1ccc(CC(=O)N[C@@H](Cc2ccc(OCc3ccc(-c4ccccc4)cc3)cc2)C(=O)NS(=O)(=O)c2ccc(NCCCc3ccccc3)c([N+](=O)[O-])c2)cc1`: the Ki in assay [1] (read-out: Ki) is 450 nM; on Bcl-2-like protein 1 it was “Not Active”; in [2], 190 nM. The IC50 with Jurkat [3] was 3370 nM; in the assay with RS4-11 it was 3390 nM; in the assay with THP-1, 6460 nM; with MOLT-4, 8360 nM; with HUVEC, greater than 50000 nM. Further, the viability at 10 µM in the assay on Jurkat [4] was determined as 93.8%. Further, the Activity in the assay on Jurkat [5] was 5.48%; in the assay with Jurkat [6], 0.72%; in the assay on Jurkat [7], 0.037%; with Jurkat [9], 20.8%; in the assay with Jurkat [10], 1.42%; in the assay with Jurkat [11], 0%. In addition, the Activity result in the assay with Jurkat [12] and with Jurkat [13] was “Dose-dependent effect” each time. In addition, the viability at 20 µM in the assay with Jurkat [8] was found to be 77.8%.

For the compound `Cl.N#Cc1ccc(COc2ccc(C[C@H](N)C(=O)NS(=O)(=O)c3ccc(NC4CCCC4)c([N+](=O)[O-])c3)cc2)cc1`, in assay [1], the Ki result is “Not Active”.

In the case of `CCCCCC(=O)N[C@@H](Cc1ccc(OCc2ccc(-c3ccccc3)cc2)cc1)C(=O)NS(=O)(=O)c1ccc(Cl)c([N+](=O)[O-])c1`, the Ki in assay [1] (read-out: Ki) amounted to 560 nM.

Take `Cc1ccc(-c2ccc(COc3ccc(C[C@H](NC(=O)OC(C)(C)C)C(=O)NS(=O)(=O)c4ccc(NCC5CCCCC5)c([N+](=O)[O-])c4)cc3)cc2)cc1`: the inhibition constant Ki entry in assay [1] is “Not Active”.

Consider `CC(C)(C)OC(=O)N[C@@H](Cc1ccc(OCc2ccc(C#N)cc2)cc1)C(=O)NS(=O)(=O)c1ccc(NC2CCCC2)c([N+](=O)[O-])c1`, for which, in assay [1], the Ki entry is given as “Not Active”.

Consider `CC(C)(C)OC(=O)N[C@@H](Cc1ccc(OCc2ccccc2)cc1)C(=O)NS(=O)(=O)c1ccc(NCCCc2ccccc2)c([N+](=O)[O-])c1`, for which the Ki in assay [1] (read-out: Ki) stood at 1500 nM.

`Cc1ccc(CC(=O)N[C@@H](Cc2ccc(OCc3ccc(-c4ccccc4)cc3)cc2)C(=O)NS(=O)(=O)c2ccc(Cl)c([N+](=O)[O-])c2)cc1`: in assay [1] (read-out: Ki), the Ki is 1100 nM.

As for `N#Cc1ccc(COc2ccc(C[C@H](NC(=O)c3ccc4ccccc4c3)C(=O)NS(=O)(=O)c3ccc(NCCCc4ccccc4)c([N+](=O)[O-])c3)cc2)cc1`, the Ki entry in [1] is listed as “Not Active”.

Take `CC(C)(C)OC(=O)N[C@@H](Cc1ccc(OCc2ccc(-c3ccccc3)cc2)cc1)C(=O)NS(=O)(=O)c1ccc(NC2CCCCC2)c([N+](=O)[O-])c1`: the inhibition constant Ki entry in assay [1] was “Not Active”.

As for `Cl.N#Cc1ccc(COc2ccc(C[C@H](N)C(=O)NS(=O)(=O)c3ccc(NCCCc4ccccc4)c([N+](=O)[O-])c3)cc2)cc1`, the Ki entry in [1] is reported as “Not Active”.

As to `CC(C)(C)OC(=O)N[C@@H](Cc1ccc(OCc2ccc(-c3ccc(Cl)cc3)cc2)cc1)C(=O)NS(=O)(=O)c1ccc(Cl)c([N+](=O)[O-])c1`, the Ki in [1] (read-out: Ki) came to 580 nM.

Take `O=C(N[C@@H](Cc1ccc(OCc2ccc(-c3ccccc3)cc2)cc1)C(=O)NS(=O)(=O)c1ccc(NC2CCCCC2)c([N+](=O)[O-])c1)c1ccc2ccccc2c1`: in assay [1], the Ki result is listed as “Not Active”.

The values are drawn from ChEMBL document CHEMBL4229556, “Discovery and development of substituted tyrosine derivatives as Bcl-2/Mcl-1 inhibitors” (Bioorg Med Chem, 2018).
